Experimental data: US12133855B2, “Lipid-like nanocomplexes and uses thereof” (Trustees of Tufts College, priority 2018, dated 2024)
Read-outs that look alike come from different tables or passages of the source.

Key:
Type in all cases: cell-based
HeLa-DsRed cells [1] = conditions: for mean fluorescence intensity of treated cells / cell morphology (bright field images) vs untreated cells: [lipidoid]=6.6 μg mL^−1, [(−30)GFP-Cre]=100 nM; for green fluorescence signals (fluorescent images): protein/nanoparticle treated HeLa-DsRed cells
Method: The internalization kinetics and efficiencies of OCholB LNPs were then studied using NR loaded LNPs and HeLa cells. […] Next, all of the NR delivery efficiencies of eight OCholB LNPs were determined after 8 h of exposure. […] Representative fluorescent images of NR/LNPs (NR/75-OCholB, NR/76-OCholB and NR/77-OCholB) treated HeLa cells are shown in FIG. 12D, from which it is easily observed that NR was delivered into the cells and mainly distributed in cytoplasm, by OCholB LNPs. Next, the internalization of negatively charged hydrophilic fluorescent dye, calcein, was studied. […] Next, the use of OCholB LNPs for the intracellular delivery of macromolecular cargo was explored, using fluorescent recombinant (−30)GFP-Cre protein and HeLa-DsRed cells as the model system. […] Delivery efficiency was tested at a range of (−30)GFP-Cre protein concentrations (25, 50 and 100 nM), with a consistent lipid/protein ratio (i.e., delivery with the final lipid concentration of 1.7, 3.3, and 6.6 μg mL^−1 respectively). 33.2%, 43.8% and 74% of GFP positive (GFP^+) cells were recorded for (−30)GFP-Cre/Lpf2k treated cells with the concentration of (−30)GFP-Cre 25 nM, 50 nM and 100 nM, respectively. […] The typical flow cytometry profiles of naked (−30)GFP-Cre protein and (−30)GFP-Cre loaded nanoparticles ((−30)GFP-Cre/75-OCholB, (−30)GFP-Cre/76-OCholB, (−30)GFP-Cre/77-OCholB and (−30)GFP-Cre/Lpf2k) treated HeLa-DsRed cells were shown in and FIG. 12H ([lipidoid]=6.6 μg mL^−1 and [(−30)GFP-Cre]=100 nM), which is consistent with the statistical results shown in FIG. 12G. Furthermore, the representative fluorescent images from the protein and protein/nanoparticle treated HeLa-DsRed cells are also shown in FIG. 12I.

HeLa cells = test: MTT cytotoxicity of mRNA-loaded nanoparticles; conditions: for cell morphology (bright field images): 24 h of exposure; for cell viability: GFP mRNA loaded, lipidoid/mRNA=10/1, [mRNA]=0.86 μg mL^−1, 24 h
Method: All experiments were performed in quadruplicate.
Next, the MTT assay was conducted to examine the cytotoxicity of mRNA-loaded nanoparticles against HeLa cells.

HeLa-DsRed cells [2] = test: Cre mRNA delivery (DsRed+ cells); conditions: lipidoid/mRNA=10/1, [mRNA]=0.86 μg mL^−1, 24 h
Method: Next, the possibility of using OCholB LNPs to deliver mRNA for genome editing (Cre-loxP and CRISPR/Cas9 systems) purposes was examined. First, Cre mRNA was complexed with OCholB LNPs and tested against HeLa-DsRed cells. The HeLa-DsRed cells express red fluorescent protein, DsRed, only upon Cre protein-mediated recombination. After 24 h of incubation with mRNA/LNPs (lipidoid/mRNA=10/1; [mRNA]=0.86 μg mL^−1), the DsRed^+ cell portions were determined by flow cytometry. […] Then the Cas9 mRNA that expresses a version of Streptococcus pyogenes SF370 Cas9 protein with an N and C terminal nuclear localization signal (NLS) were loaded into LNPs, along with single-guide RNA (sgRNA) that targets a sequence on GFP gene. GFP-HEK cells which steadily express GFP proteins were used a cell model in this case. GFP-cells, indicating a successful Cas9-mediated knockdown of GFP expression, were analyzed using flow cytometry. […] This was also found to be applicable to protein delivery in our previous studies.
In this context, two strategies were tested, i.e., synthesizing new OCholB-tailed lipidoids with single tail rather than full substitution, and adding helper lipids (phospholipids) into fully substituted OCholB LNPs. Single-tailed lipidoids, 75-OCholB-1, 76-OCholB-1 and […] at first following similar protocols as described before and characterized by ESI-MS ([75-OCholB-1+H]^+, 736.55; [76-OCholB-1+H]^+, 734.64; [77-OCholB-1+H]^+, 748.73). Nanoparticles were than fabricated using the same sonication/vortex procedures and the obtained LNPs were measured by DLS (75-OCholB-1, <Dh>=302.6 nm, μ2/I^2=0.30; 76-OCholB-1, <Dh>=294.5 nm, μ2/I^2=0.30; 77-OCholB-1, <Dh>=254.2 nm, μ2/I^2=0.33). […] 69.4%, 72.5% and 68.9% of GFP^+ cells were determined for mRNA/75-OCholB-1, mRNA/76-OCholB-1 and mRNA/77-OCholB-1 treated HeLa cells, respectively. Cre mRNA could also be efficiently delivered into HeLa-DsRed cells, as 87.3% (mRNA/75-OCholB-1), 82.8% (mRNA/76-OCholB-1) and 81.5% (mRNA/77-OCholB-1) of cells were determined to be DsRed^+ after 24 h of exposure (FIG. 14G). […]

[3] = (−30)GFP-Cre 50 nM, lipid 3.3 μg mL^−1
[4] = (−30)GFP-Cre 100 nM, lipid 6.6 μg mL^−1
[5] = (−30)GFP-Cre 25 nM, lipid 1.7 μg mL^−1

SMILES | GFP positive (GFP^+) cells (HeLa-DsRed cells [1]; [3]) | GFP positive (GFP^+) cells (HeLa-DsRed cells [1]; [4]) | GFP positive (GFP^+) cells (HeLa-DsRed cells [1]; [5]) | mean fluorescence intensity of treated cells (HeLa-DsRed cells [1]) | cell morphology (bright field images) vs untreated cells (HeLa-DsRed cells [1]) | green fluorescence signals (fluorescent images) (HeLa-DsRed cells [1]) | cell morphology (bright field images) (HeLa cells) | cell viability (HeLa cells) | DsRed^+ cells (HeLa-DsRed cells [2])
CC(C)CCCC(C)C1CCC2C3CC=C4CC(OC(=O)NCCSSCCOC(=O)CCN(CCC(=O)OCCSSCCNC(=O)OC5CCC6(C)C(=CCC7C6CCC6(C)C(C(C)CCCC(C)C)CCC76)C5)CCN(C)C)CCC4(C)C3CCC12C (stereo not shown) [Lipidoid 78-OCholB] | 46.1% | 90.1% | – | – | – | – | – | – | –
CCN(CC)CCCN(CCC(=O)OCCSSCCNC(=O)OC1CCC2(C)C(=CCC3C2CCC2(C)C(C(C)CCCC(C)C)CCC32)C1)CCC(=O)OCCSSCCNC(=O)OC1CCC2(C)C(=CCC3C2CCC2(C)C(C(C)CCCC(C)C)CCC32)C1 (stereo not shown) [Lipidoid 81-OCholB] | 87.4% | 91.5% | 40.9% | much more efficient than others | – | – | – | – | –
CC(C)CCCC(C)C1CCC2C3CC=C4CC(OC(=O)NCCSSCCOC(=O)CCN(CCC(=O)OCCSSCCNC(=O)OC5CCC6(C)C(=CCC7C6CCC6(C)C(C(C)CCCC(C)C)CCC76)C5)CCN5CCCC5)CCC4(C)C3CCC12C (stereo not shown) [Lipidoid 76-OCholB] | 96.3% | 98.7% | 66.4% | much more efficient than others | no evident morphological change | Strong green fluorescence signals | no obvious variations | 94.5% | 48.7%
CC(C)CCCC(C)C1CCC2C3CC=C4CC(OC(=O)NCCSSCCOC(=O)CCN(CCCN(C)C)CCC(=O)OCCSSCCNC(=O)OC5CCC6(C)C(=CCC7C6CCC6(C)C(C(C)CCCC(C)C)CCC76)C5)CCC4(C)C3CCC12C (stereo not shown) [Lipidoid 80-OCholB] | 88.9% | 97.0% | 54.7% | much more efficient than others | – | – | – | – | –
CCN(CC)CCN(CCC(=O)OCCSSCCNC(=O)OC1CCC2(C)C(=CCC3C2CCC2(C)C(C(C)CCCC(C)C)CCC32)C1)CCC(=O)OCCSSCCNC(=O)OC1CCC2(C)C(=CCC3C2CCC2(C)C(C(C)CCCC(C)C)CCC32)C1 (stereo not shown) [Lipidoid 75-OCholB] | 42.3% | 93.1% | – | much more efficient than others | no evident morphological change | Strong green fluorescence signals | no obvious variations | 84.7% | 67.2%
CC(C)CCCC(C)C1CCC2C3CC=C4CC(OC(=O)NCCSSCCOC(=O)CCN(C)CCN(CCN(C)CCC(=O)OCCSSCCNC(=O)OC5CCC6(C)C(=CCC7C6CCC6(C)C(C(C)CCCC(C)C)CCC76)C5)CCN(C)CCC(=O)OCCSSCCNC(=O)OC5CCC6(C)C(=CCC7C6CCC6(C)C(C(C)CCCC(C)C)CCC76)C5)CCC4(C)C3CCC12C (stereo not shown) [Lipidoid 304-OCholB] | – | 48.8% | – | – | – | – | – | – | –
CC(C)CCCC(C)C1CCC2C3CC=C4CC(OC(=O)NCCSSCCOC(=O)CCN(CCC(=O)OCCSSCCNC(=O)OC5CCC6(C)C(=CCC7C6CCC6(C)C(C(C)CCCC(C)C)CCC76)C5)CCC5CCCN5C)CCC4(C)C3CCC12C (stereo not shown) [Lipidoid 77-OCholB] | 90.7% | 97.9% | 66.4% | much more efficient than others | no evident morphological change | Strong green fluorescence signals | no obvious variations | 100.1% | 72.8%
